{"source": "patent US8008456B2", "about": "“Compositions containing, methods involving, and uses of non-natural amino acids and polypeptides” (Ambrx, Inc., priority 2004, dated 2011)", "test": "pH stability tests", "format": "physicochemical", "procedure": "This example provides the results of pH stability tests that were conducted on certain illustrative non-natural amino acids as an aid for predicting their properties for incorporation into non-natural amino acid polypeptides.", "data": [{"smiles": "COCCOC(=O)NCCO/N=C(\\C)CNC(=O)c1ccccc1", "values": [{"measurement": "pH stability", "setting": "pH 4.0, 1 hour", "result": 5, "unit": "%"}, {"measurement": "pH stability", "setting": "pH 4.0, 1 day", "result": 7, "unit": "%"}, {"measurement": "pH stability", "setting": "pH 4.0, 2 days", "result": 8, "unit": "%"}, {"measurement": "pH stability", "setting": "pH 4.0, 3 days", "result": 10, "unit": "%"}, {"measurement": "pH stability", "setting": "pH 4.0, 4 days", "result": 11, "unit": "%"}, {"measurement": "pH stability", "setting": "pH 4.0, 5 days", "result": 11, "unit": "%"}, {"measurement": "pH stability", "setting": "pH 4.0, 6 days", "result": 11, "unit": "%"}, {"measurement": "pH stability", "setting": "pH 4.0, 7 days", "result": 11, "unit": "%"}, {"measurement": "pH stability", "setting": "pH 4.0, 10 days", "result": 11, "unit": "%"}, {"measurement": "pH stability", "setting": "pH 5.0, 1 hour", "result": "<1", "unit": "%"}, {"measurement": "pH stability", "setting": "pH 5.0, 1 day", "result": 3, "unit": "%"}, {"measurement": "pH stability", "setting": "pH 5.0, 2 days", "result": 3, "unit": "%"}, {"measurement": "pH stability", "setting": "pH 5.0, 3 days", "result": 5, "unit": "%"}, {"measurement": "pH stability", "setting": "pH 5.0, 4 days", "result": 7, "unit": "%"}, {"measurement": "pH stability", "setting": "pH 5.0, 5 days", "result": 7, "unit": "%"}, {"measurement": "pH stability", "setting": "pH 5.0, 6 days", "result": 7, "unit": "%"}, {"measurement": "pH stability", "setting": "pH 5.0, 7 days", "result": 8, "unit": "%"}, {"measurement": "pH stability", "setting": "pH 5.0, 10 days", "result": 8, "unit": "%"}, {"measurement": "pH stability", "setting": "pH 6.5, 1 hour", "result": "<1", "unit": "%"}, {"measurement": "pH stability", "setting": "pH 6.5, 1 day", "result": "<1", "unit": "%"}, {"measurement": "pH stability", "setting": "pH 6.5, 2 days", "result": "<1", "unit": "%"}, {"measurement": "pH stability", "setting": "pH 6.5, 3 days", "result": 2, "unit": "%"}, {"measurement": "pH stability", "setting": "pH 6.5, 4 days", "result": 2, "unit": "%"}, {"measurement": "pH stability", "setting": "pH 6.5, 5 days", "result": 2, "unit": "%"}, {"measurement": "pH stability", "setting": "pH 6.5, 6 days", "result": 2, "unit": "%"}, {"measurement": "pH stability", "setting": "pH 6.5, 7 days", "result": 2, "unit": "%"}, {"measurement": "pH stability", "setting": "pH 6.5, 10 days", "result": 2, "unit": "%"}, {"measurement": "pH stability", "setting": "pH 7.4, 1 hour", "result": "<1", "unit": "%"}, {"measurement": "pH stability", "setting": "pH 7.4, 1 day", "result": "<1", "unit": "%"}, {"measurement": "pH stability", "setting": "pH 7.4, 2 days", "result": "<1", "unit": "%"}, {"measurement": "pH stability", "setting": "pH 7.4, 3 days", "result": "<1", "unit": "%"}, {"measurement": "pH stability", "setting": "pH 7.4, 4 days", "result": "<1", "unit": "%"}, {"measurement": "pH stability", "setting": "pH 7.4, 5 days", "result": "<1", "unit": "%"}, {"measurement": "pH stability", "setting": "pH 7.4, 6 days", "result": "<1", "unit": "%"}, {"measurement": "pH stability", "setting": "pH 7.4, 7 days", "result": "<1", "unit": "%"}, {"measurement": "pH stability", "setting": "pH 7.4, 10 days", "result": "<1", "unit": "%"}, {"measurement": "pH stability", "setting": "pH 8.0, 1 hour", "result": 9, "unit": "%"}, {"measurement": "pH stability", "setting": "pH 8.0, 1 day", "result": 24, "unit": "%"}, {"measurement": "pH stability", "setting": "pH 8.0, 2 days", "result": 30, "unit": "%"}, {"measurement": "pH stability", "setting": "pH 8.0, 3 days", "result": 30, "unit": "%"}, {"measurement": "pH stability", "setting": "pH 8.0, 4 days", "result": 30, "unit": "%"}, {"measurement": "pH stability", "setting": "pH 8.0, 5 days", "result": 30, "unit": "%"}, {"measurement": "pH stability", "setting": "pH 8.0, 6 days", "result": 30, "unit": "%"}, {"measurement": "pH stability", "setting": "pH 8.0, 7 days", "result": 33, "unit": "%"}, {"measurement": "pH stability", "setting": "pH 8.0, 10 days", "result": 34, "unit": "%"}]}, {"smiles": "COCCOC(=O)NCCO/N=C1\\C(=O)Nc2ccccc21", "values": [{"measurement": "pH stability", "setting": "pH 4.0, 1 hour", "result": "<1", "unit": "%"}, {"measurement": "pH stability", "setting": "pH 4.0, 1 day", "result": "<1", "unit": "%"}, {"measurement": "pH stability", "setting": "pH 4.0, 2 days", "result": "<1", "unit": "%"}, {"measurement": "pH stability", "setting": "pH 4.0, 3 days", "result": "<1", "unit": "%"}, {"measurement": "pH stability", "setting": "pH 4.0, 4 days", "result": "<1", "unit": "%"}, {"measurement": "pH stability", "setting": "pH 4.0, 5 days", "result": "<1", "unit": "%"}, {"measurement": "pH stability", "setting": "pH 4.0, 6 days", "result": "<1", "unit": "%"}, {"measurement": "pH stability", "setting": "pH 4.0, 7 days", "result": "<1", "unit": "%"}, {"measurement": "pH stability", "setting": "pH 4.0, 10 days", "result": "<1", "unit": "%"}, {"measurement": "pH stability", "setting": "pH 5.0, 1 hour", "result": "<1", "unit": "%"}, {"measurement": "pH stability", "setting": "pH 5.0, 1 day", "result": "<1", "unit": "%"}, {"measurement": "pH stability", "setting": "pH 5.0, 2 days", "result": "<1", "unit": "%"}, {"measurement": "pH stability", "setting": "pH 5.0, 3 days", "result": "<1", "unit": "%"}, {"measurement": "pH stability", "setting": "pH 5.0, 4 days", "result": "<1", "unit": "%"}, {"measurement": "pH stability", "setting": "pH 5.0, 5 days", "result": "<1", "unit": "%"}, {"measurement": "pH stability", "setting": "pH 5.0, 6 days", "result": "<1", "unit": "%"}, {"measurement": "pH stability", "setting": "pH 5.0, 7 days", "result": "<1", "unit": "%"}, {"measurement": "pH stability", "setting": "pH 5.0, 10 days", "result": "<1", "unit": "%"}, {"measurement": "pH stability", "setting": "pH 6.5, 1 hour", "result": "<1", "unit": "%"}, {"measurement": "pH stability", "setting": "pH 6.5, 1 day", "result": "<1", "unit": "%"}, {"measurement": "pH stability", "setting": "pH 6.5, 2 days", "result": "<1", "unit": "%"}, {"measurement": "pH stability", "setting": "pH 6.5, 3 days", "result": "<1", "unit": "%"}, {"measurement": "pH stability", "setting": "pH 6.5, 4 days", "result": "<1", "unit": "%"}, {"measurement": "pH stability", "setting": "pH 6.5, 5 days", "result": "<1", "unit": "%"}, {"measurement": "pH stability", "setting": "pH 6.5, 6 days", "result": "<1", "unit": "%"}, {"measurement": "pH stability", "setting": "pH 6.5, 7 days", "result": "<1", "unit": "%"}, {"measurement": "pH stability", "setting": "pH 6.5, 10 days", "result": "<1", "unit": "%"}, {"measurement": "pH stability", "setting": "pH 7.4, 1 hour", "result": "<1", "unit": "%"}, {"measurement": "pH stability", "setting": "pH 7.4, 1 day", "result": "<1", "unit": "%"}, {"measurement": "pH stability", "setting": "pH 7.4, 2 days", "result": "<1", "unit": "%"}, {"measurement": "pH stability", "setting": "pH 7.4, 3 days", "result": "<1", "unit": "%"}, {"measurement": "pH stability", "setting": "pH 7.4, 4 days", "result": "<1", "unit": "%"}, {"measurement": "pH stability", "setting": "pH 7.4, 5 days", "result": "<1", "unit": "%"}, {"measurement": "pH stability", "setting": "pH 7.4, 6 days", "result": "<1", "unit": "%"}, {"measurement": "pH stability", "setting": "pH 7.4, 7 days", "result": "<1", "unit": "%"}, {"measurement": "pH stability", "setting": "pH 7.4, 10 days", "result": "<1", "unit": "%"}, {"measurement": "pH stability", "setting": "pH 8.0, 1 hour", "result": "<1", "unit": "%"}, {"measurement": "pH stability", "setting": "pH 8.0, 1 day", "result": "<1", "unit": "%"}, {"measurement": "pH stability", "setting": "pH 8.0, 2 days", "result": "<1", "unit": "%"}, {"measurement": "pH stability", "setting": "pH 8.0, 3 days", "result": "<1", "unit": "%"}, {"measurement": "pH stability", "setting": "pH 8.0, 4 days", "result": "<1", "unit": "%"}, {"measurement": "pH stability", "setting": "pH 8.0, 5 days", "result": "<1", "unit": "%"}, {"measurement": "pH stability", "setting": "pH 8.0, 6 days", "result": "<1", "unit": "%"}, {"measurement": "pH stability", "setting": "pH 8.0, 7 days", "result": "<1", "unit": "%"}, {"measurement": "pH stability", "setting": "pH 8.0, 10 days", "result": "<1", "unit": "%"}]}]}
